Source: a melting point compilation (Tetko et al.; mined from patent text by program, amines drawn as free bases though some values may be those of a salt)

Point of comparison: Cc1nn(C)c(NC(=O)Nc2ccccc2)c1C1=CCCC1, melting point 204 °C. Against it:
- CC(=O)Oc1cc(C(C)C)c(NC(=O)CN2CCN(CCSc3nc4ccccc4o3)CC2)c(C(C)C)c1 — lower, 126 to 129 °C
- CSc1c(Cl)nc(N2CCNCC2)nc1NC(C)C — lower, 147 °C
- CCOCCc1c(-c2ccc(Cl)cc2)nc(N)n2ncnc12 — lower, 183 to 185 °C
- COc1ccc2c(c1)C(CCNC(C)=O)C1(CC2)Cc2ccccc2C1 (stereo not given) — lower, 139 to 141 °C
- COc1cc(CC(CO)NC(=O)c2ccccc2)cc(OC)c1 (stereo not given) — lower, 117 to 118 °C
- Cc1[nH]cnc1CSCCNc1[nH]cc(CCc2ccccc2)c1[N+](=O)[O-] — lower, 186 to 187 °C
- COc1ccc(CCNC(=O)c2ccc3n2Cc2ccccc2N(C(=O)c2ccc(-c4ccccc4C)c(C)c2)C3)cc1OC — lower, 130 to 136 °C
- O=C(O)Cc1cccc(Oc2cccc(-c3nnc(Nc4ccc(Cl)c(Cl)c4)s3)c2)c1 — lower, 183 to 184 °C
- N#Cc1ccc(-c2ccc(Cl)cc2)[nH]c1=O — higher, 330 to 339 °C
- CC(C)(C)OC(=O)Nc1cc(N2CCOCC2)c(C#Cc2ccccc2)cc1[N+](=O)[O-] — lower, 190 to 191 °C
- O=C(c1ccc(F)cc1)C1(c2ccc(F)cc2)CCN(Cc2ccccc2)CC1 — lower, 136 to 138 °C
- O=[N+]([O-])c1cc(O)c(F)cc1Cl — lower, 85 to 86 °C
- CCC=Cc1c(C(C)C)nc(C(C)C)c(CO)c1-c1ccc(F)cc1 — lower, 115 to 117 °C
- COc1c(NC(=O)c2ccc(Br)cc2)ccc2cc(CO)cnc12 — lower, 185 to 187 °C
- CS(=O)(=O)c1c(C(=O)NN=Cc2cccc3ccccc23)[nH]c2ccccc12 — higher, > 250 °C
- CN1CCN(C2=Nc3cc(Cl)cc4c3N(CC4)c3ccccc32)CC1 — lower, 199 to 200 °C
- CCOC(=O)c1cc(=O)c(O)c(-c2ccc(O)cc2)o1 — higher, 228 to 232 °C
- COc1ccc2cccc(N3C(=O)CNCC3=O)c2c1 — higher, 232 °C
- C=C(C)C(=O)OCc1ccc(OC2CCCCO2)cc1 (stereo not given) — lower, 36 to 36.7 °C
- CC(C)OCc1cnc2c(NC(=O)c3c(Cl)cccc3Cl)cccc2c1Cl — lower, 117 to 118 °C
- CCCSN(C)C(=O)Nc1ccc(Cl)c(Cl)c1 — lower, 40 °C
- Cc1nnc2n1-c1ccc([N+](=O)[O-])cc1C(c1ccccc1Cl)=CC2 — higher, 225 to 227 °C
- CCCCCCCCCCCCCCCC(=O)C(O)(O)C(=O)OC(C)(C)C — lower, 49 to 51 °C
- O=C1NC(=O)c2c1cc1ccc3c(c1c2C1CCCCC1)OCO3 — higher, 305 to 308 °C
- CCCCOc1ccc(S(=O)(=O)C2(C(=O)NO)CCN(CCCOc3ccccc3)CC2)cc1 — lower, 84 °C
- C1=Nc2c(cnc3ccccc23)OC12CCCCC2 — lower, 164 to 165 °C
- N[C@@H](Cc1ccc(C(F)(F)F)cc1)[C@H](O)c1ccoc1 (racemic) — lower, 91 to 92 °C
- CC(COc1ccc2c(c1)CC/C(=C\c1cccs1)C2=O)n1ccnc1 (stereo not given) — lower, 160 to 162 °C
- O=C(c1cc(Br)cc(Br)c1)c1cc(Br)cc(Br)c1 — higher, 208 to 209 °C
- COC(=O)c1ccc(-c2nsc3nc4ccccc4n23)cc1 — not separable, 204 to 206 °C
- CC(=O)NCC1CN(c2ccc(N3CCC(n4cc(C5(C)CO5)nn4)CC3)c(F)c2)C(=O)O1 (stereo not given) — lower, 158 to 160 °C
- COCCn1cc(C2CCN(CCOc3ccccc3C(=O)O)CC2)c2ccccc21 — lower, 139 to 140 °C
- CC(=O)OCCNc1nnc(-c2ccccc2)cc1C — lower, 127 °C
- Clc1c2ccccc2nc2c1oc1ccccc12 — lower, 158 to 159 °C
- Cc1cc(Cl)cc2c1OC(C)(C)C(/C=C/C=C/C=C/C(=O)O)=C2 — lower, 190 to 192 °C
- CCCCCCSc1sc(-c2cc[nH]n2)c2c1C(=O)CC(C)(C)C2 — lower, 134 to 137 °C
- Cn1c(-c2ccc(-c3ccccn3)cc2)c(C(=O)N2CCC(OCC(=O)O)CC2)c(=O)n1-c1ccc(C(=N)N)cc1 — higher, 238 to 249 °C
- Clc1ccc(-n2nc3c(c2Cl)CCCCC3)cc1 — lower, 59 to 61 °C
- CC1Cc2nc(N)nc(Cl)c2C1 (stereo not given) — lower, 182 to 183 °C
- Cc1ccc2c(O)cnnc2c1 — lower, 114 to 115 °C
- O=c1c(CCCc2ccncc2)cc2cccnc2n1-c1ccc2nonc2c1 — lower, 192 to 194 °C
- NS(=O)(=O)c1cc(C(=O)O)cc(NCc2ccccc2)c1NCCc1ccccc1 — lower, 203 °C
- C=CCNc1nc(-c2ccccc2)c(-c2ccc(=O)n(CC=C)n2)s1 — lower, 146 to 147 °C
- CSCCOc1ccc(/C=C(\C)c2ccc3c(c2)C(C)(C)CCC3(C)C)cc1 — lower, 94 to 96 °C
- CN(C)C(=O)CCCCC(=O)O — lower, 80 °C
- CC1(C)CC(=O)N(CC(COc2ccc(-c3ccc(C#N)cc3)cc2)N(O)C=O)C(=O)C1 (stereo not given) — lower, 121 °C
- C=CCN1C2CCC3C1CCC2N3C(c1ccc(C(=O)N2CCCC2)cc1)c1cccc(OC)c1 (stereo not given) — lower, 126 to 128 °C
- CCC(CC)c1ccc(OC)c2nc(Nc3c(C)cc(Cl)cc3OC)n(C)c12 — lower, 188 to 189 °C
- COC(=O)c1ccc(Cc2c(Cl)n(C)c3cc(Cl)c(CCNC(=O)N(C)C)cc23)c(OC)c1 — lower, 186 to 189 °C
